According to patent publication US9163007B2, “5-substituted indazoles as kinase inhibitors” (AbbVie Inc., priority 2007, dated 2015):

Experiments:
HCT-116 cells = experiment: AlamarBlue Cell Viability Assays; format: cell-based; conditions: Homo sapiens, treated 72 hours
Procedure: AlamarBlue Cell Viability Assays
HCT-116 cells (3,000/well; 96-well format) were treated for 72 hours with increasing concentrations of compounds (0.01-30 μM in half-log increments). The cells were then incubated in fresh media with 10% AlamarBlue reagent (Invitrogen #DAL1100). AlamarBlue reactions were incubated according to the manufacturer's instructions (approximately 4 hours) and then analyzed using an fmax fluorescence microplate reader (Molecular Devices) using excitation/emission wavelengths of 544/595 nm. Data were analyzed using SOFTmax PRO software provided by the manufacturer.

[1] = test system: phospho-MCM2 Ser53 in HCT-116 cells; experiment: Phospho-MCM2 ELISA; format: cell-based; conditions: Homo sapiens, treated 6 hours
Procedure: HCT-116 cells (20,000/well; 96-well format) were treated for 6 hours with increasing concentrations of compounds (0.01-10 μM in half-log increments). After removing the medium/inhibitor, the cells were frozen for 5 minutes and treated on ice with 20 μL of lysis buffer (Invitrogen #FNN0011) for 30 minutes. 80 μL of cold 2% BSA (in PBS) were then added to each well before transferring 80 μL to MCM2 antibody-coated plates (Bethyl #A300-122A, lot A300-122A-1). The plates were incubated overnight at 4° C., washed, and then incubated with the sandwich antibody (1:100 rabbit anti-human phospho-MCM2 Ser53; Bethyl #A300-756A, lot A300-756A-2) for 2 hours at room temperature. After another series of washes the samples are incubated for 1 hour with detection antibody (XSA-grade goat anti-rabbit-HRP, KPL #074-15-061, lot 50884, diluted to 2 μg/mL in 2% BSA). Plates were washed, developed using luminescence substrate (SuperSignal Pico for ELISA, Pierce #37069, Lot. HB101408), and read on a Molecular Devices M5 luminometer.

Cdc7/Dbf4 = Cdc7/Dbf4 (Homo sapiens (Human), UniProt O00311); experiment: Cdc7 Inhibition Assay; format: biochemical; conditions: 11 data point; read-out: Ki (μM) 11 data point;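 note: reaction mixtures incubated 30 min on streptavidin-coated plates, then quantified by scintillation counting, with inhibition curves fitted by non-linear regression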
Sequence of Cdc7/Dbf4 (O00311 whole entry): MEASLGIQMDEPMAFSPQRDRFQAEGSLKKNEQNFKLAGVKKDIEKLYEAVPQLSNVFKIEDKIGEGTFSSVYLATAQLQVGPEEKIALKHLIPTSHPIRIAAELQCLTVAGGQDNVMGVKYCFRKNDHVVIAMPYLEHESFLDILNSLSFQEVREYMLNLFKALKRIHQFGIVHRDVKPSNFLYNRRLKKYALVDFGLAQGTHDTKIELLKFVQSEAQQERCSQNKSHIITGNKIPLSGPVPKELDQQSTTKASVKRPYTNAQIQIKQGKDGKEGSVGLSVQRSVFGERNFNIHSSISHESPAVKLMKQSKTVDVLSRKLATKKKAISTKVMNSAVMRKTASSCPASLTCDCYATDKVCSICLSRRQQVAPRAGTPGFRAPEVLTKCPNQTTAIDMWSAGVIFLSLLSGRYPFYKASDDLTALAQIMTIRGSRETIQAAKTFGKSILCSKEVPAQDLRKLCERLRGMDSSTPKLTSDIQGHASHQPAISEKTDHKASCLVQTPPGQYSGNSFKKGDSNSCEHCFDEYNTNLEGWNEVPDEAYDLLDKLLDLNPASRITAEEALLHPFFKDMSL
Sequence of Cdc7/Dbf4 (Q9UBU7 whole entry partner): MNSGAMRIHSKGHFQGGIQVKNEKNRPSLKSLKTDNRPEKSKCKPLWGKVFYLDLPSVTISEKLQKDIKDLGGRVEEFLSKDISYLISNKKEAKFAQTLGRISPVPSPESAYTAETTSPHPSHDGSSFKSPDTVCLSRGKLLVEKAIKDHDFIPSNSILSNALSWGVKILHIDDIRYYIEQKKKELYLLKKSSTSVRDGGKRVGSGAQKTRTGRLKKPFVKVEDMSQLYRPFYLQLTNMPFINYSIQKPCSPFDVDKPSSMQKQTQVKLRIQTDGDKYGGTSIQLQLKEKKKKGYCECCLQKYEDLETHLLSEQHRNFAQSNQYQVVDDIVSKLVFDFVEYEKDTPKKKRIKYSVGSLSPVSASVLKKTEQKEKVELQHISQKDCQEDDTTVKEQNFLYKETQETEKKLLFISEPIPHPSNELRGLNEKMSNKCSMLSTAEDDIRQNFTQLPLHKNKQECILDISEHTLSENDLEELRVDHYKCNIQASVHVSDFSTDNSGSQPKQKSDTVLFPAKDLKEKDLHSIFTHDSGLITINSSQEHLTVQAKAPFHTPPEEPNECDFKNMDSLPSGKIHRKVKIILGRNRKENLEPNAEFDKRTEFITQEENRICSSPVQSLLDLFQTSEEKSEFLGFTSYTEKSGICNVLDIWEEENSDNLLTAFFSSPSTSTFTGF
Procedure: The reactions were incubated for 30 minutes on streptavidin-coated plates, washed, and quantified using a TopCount scintillation plate reader (Packard). IC50 values are determined via non-linear regression fitting of the data.

Structure (SMILES)	EC50 (HCT-116 cells) [nM]	EC50 [1] [nM]	Ki (Cdc7/Dbf4) [µM]
c1ccc(Cn2cc(-c3ccc4[nH]nc(-c5cn(Cc6ccccc6)nn5)c4c3)nn2)cc1 [Example 60, 3,5-bis(1-benzyl-1H-1,2,3-triazol-4-yl)-1H-indazole]	143	> 10000	0.0556
c1ccc(Cn2cc(-c3ccc4[nH]nc(-c5ccccc5)c4c3)nn2)cc1 [Example 61, 5-(1-benzyl-1H-1,2,3-triazol-4-yl)-3-phenyl-1H-indazole]	3980	8790	0.0077
Nc1n[nH]c2ccc(-c3cn(Cc4ccccc4)nn3)cc12 [Example 62, 5-(1-benzyl-1H-1,2,3-triazol-4-yl)-1H-indazol-3-amine]	4540	> 10000	–
COCC(=O)Nc1n[nH]c2ccc(-c3cn(Cc4ccccc4)nn3)cc12 [Example 64, N-[5-(1-benzyl-1H-1,2,3-triazol-4-yl)-1H-indazol-3-yl]-2-methoxyacetamide]	422	> 10000	0.015
O=C(Nc1n[nH]c2ccc(-c3cn(Cc4ccccc4)nn3)cc12)c1ccccc1 [Example 73, N-[5-(1-benzyl-1H-1,2,3-triazol-4-yl)-1H-indazol-3-yl]benzamide]	760	1970	–
c1ccc(Cn2nnc(-c3ccc4[nH]ncc4c3)c2-c2ccccc2)cc1 [Example 87, 5-(1-benzyl-5-phenyl-1H-1,2,3-triazol-4-yl)-1H-indazole]	11000	5950	0.000601
Nc1n[nH]c2ccc(-c3nnn(Cc4ccccc4)c3C3CC3)cc12 [Example 89, 5-(1-benzyl-5-cyclopropyl-1H-1,2,3-triazol-4-yl)-1H-indazol-3-amine]	5480	> 10000	0.035
Nc1n[nH]c2ccc(-c3nnn(Cc4ccccc4)c3-c3ccccc3)cc12 [Example 102, 5-(1-benzyl-5-phenyl-1H-1,2,3-triazol-4-yl)-1H-indazol-3-amine]	3190	3130	–
Cc1c(-c2ccc3[nH]nc(N)c3c2)nnn1Cc1ccccc1 [Example 123, 5-(1-benzyl-5-methyl-1H-1,2,3-triazol-4-yl)-1H-indazol-3-amine]	3860	> 10000	–
Nc1n[nH]c2ccc(-c3nnn(Cc4ccccc4)c3-c3ccc(F)cc3)cc12 [Example 151, 5-[1-benzyl-5-(4-fluorophenyl)-1H-1,2,3-triazol-4-yl]-1H-indazol-3-amine]	8640	3760	–
Cc1ccccc1-c1c(-c2ccc3[nH]nc(N)c3c2)nnn1Cc1ccccc1 [Example 163, 5-[1-benzyl-5-(2-methylphenyl)-1H-1,2,3-triazol-4-yl]-1H-indazol-3-amine]	928	9430	–
O=C(Nc1n[nH]c2ccc(-c3nnn(Cc4ccccc4)c3C3CC3)cc12)c1cccc(Cl)c1 [Example 224, N-[5-(1-benzyl-5-cyclopropyl-1H-1,2,3-triazol-4-yl)-1H-indazol-3-yl]-3-chlorobenzamide]	2420	> 10000	–
O=C(Nc1n[nH]c2ccc(-c3cn(Cc4ccccc4)nn3)cc12)c1cccc(F)c1 [Example 395, N-[5-(1-benzyl-1H-1,2,3-triazol-4-yl)-1H-indazol-3-yl]-3-fluorobenzamide]	315	2990	–
COC(=O)c1n[nH]c2ccc(-c3cn(Cc4ccccc4)nn3)cc12 [Example 397, methyl 5-(1-benzyl-1H-1,2,3-triazol-4-yl)-1H-indazole-3-carboxylate]	24800	–	0.0811
Nc1n[nH]c2ccc(-c3nnn(Cc4ccccc4)c3C3CCCCC3)cc12 [Example 402, 5-(1-benzyl-5-cyclohexyl-1H-1,2,3-triazol-4-yl)-1H-indazol-3-amine]	37	–	0.037
Cc1n[nH]c2ccc(-c3nnn(Cc4ccccc4)c3-c3ccc(F)cc3)cc12 [Example 408, 5-[1-benzyl-5-(4-fluorophenyl)-1H-1,2,3-triazol-4-yl]-3-methyl-1H-indazole]	> 30000	1960	–
